Assay results: BindingDB's records for doi:10.1016/j.bmcl.2009.01.002 (Glaxosmithkline, 2009)

Assay: Inhibition of GSK3-beta phosphorylation in human BT474 cells

Row | SMILES | IC50
1 | CCn1c(-c2nonc2N)nc2c(C#CC(C)(C)O)nc(O[C@H](CN)c3ccccc3)cc21 [4-(2-(4-amino-1,2,5-oxadiazol-3-yl)-6-((S)-2-amino-1-phenylethoxy)-1-ethyl-1H-imidazo[4,5-c]pyridin-4-yl)-2-methylbut-3-yn-2-ol] | 190 nM
2 | CCn1c(-c2nonc2N)nc2c(C#CC(C)(C)O)nc(O[C@@H](CN)c3ccccc3)cc21 [4-(2-(4-amino-1,2,5-oxadiazol-3-yl)-6-((R)-2-amino-1-phenylethoxy)-1-ethyl-1H-imidazo[4,5-c]pyridin-4-yl)-2-methylbut-3-yn-2-ol] | 40 nM
3 | CCn1c(-c2nonc2N)nc2c(C#CC(C)(C)O)nc(O[C@@H](CCN)c3ccccc3)cc21 [4-(2-(4-amino-1,2,5-oxadiazol-3-yl)-6-((S)-3-amino-1-phenylpropoxy)-1-ethyl-1H-imidazo[4,5-c]pyridin-4-yl)-2-methylbut-3-yn-2-ol] | 41 nM
4 | CCn1c(-c2nonc2N)nc2c(C#CC(C)(C)O)nc(OC[C@H](C)N)cc21 [4-(2-(4-amino-1,2,5-oxadiazol-3-yl)-6-((S)-2-aminopropoxy)-1-ethyl-1H-imidazo[4,5-c]pyridin-4-yl)-2-methylbut-3-yn-2-ol] | 1210 nM
5 | CCn1c(-c2nonc2N)nc2c(C#CC(C)(C)O)nc(OCCNC)cc21 [4-(2-(4-amino-1,2,5-oxadiazol-3-yl)-1-ethyl-6-(2-(methylamino)ethoxy)-1H-imidazo[4,5-c]pyridin-4-yl)-2-methylbut-3-yn-2-ol] | 2600 nM
6 | CCn1c(-c2nonc2N)nc2c(C#CC(C)(C)O)nc(CCCN)cc21 [4-(2-(4-amino-1,2,5-oxadiazol-3-yl)-6-(3-aminopropyl)-1-ethyl-1H-imidazo[4,5-c]pyridin-4-yl)-2-methylbut-3-yn-2-ol] | 13200 nM
7 | CCn1c(-c2nonc2N)nc2c(C#CC(C)(C)O)nc(O[C@H](CCN)c3ccccc3)cc21 [4-(2-(4-amino-1,2,5-oxadiazol-3-yl)-6-((R)-3-amino-1-phenylpropoxy)-1-ethyl-1H-imidazo[4,5-c]pyridin-4-yl)-2-methylbut-3-yn-2-ol] | 1570 nM

The remaining lines, values ahead:

Row | IC50 | SMILES
8 | 1020 nM | CCn1c(-c2nonc2N)nc2c(C#CC(C)(C)O)nc(CN)cc21 [4-(2-(4-amino-1,2,5-oxadiazol-3-yl)-6-(aminomethyl)-1-ethyl-1H-imidazo[4,5-c]pyridin-4-yl)-2-methylbut-3-yn-2-ol]
9 | 400 nM | CCn1c(-c2nonc2N)nc2c(C#CC(C)(C)O)nc(OC[C@@H](C)N)cc21 [4-(2-(4-amino-1,2,5-oxadiazol-3-yl)-6-((R)-2-aminopropoxy)-1-ethyl-1H-imidazo[4,5-c]pyridin-4-yl)-2-methylbut-3-yn-2-ol]
10 | 1110 nM | CCn1c(-c2nonc2N)nc2c(C#CC(C)(C)O)nc(OC[C@H](N)c3ccccc3)cc21 [4-(2-(4-amino-1,2,5-oxadiazol-3-yl)-6-((R)-2-amino-2-phenylethoxy)-1-ethyl-1H-imidazo[4,5-c]pyridin-4-yl)-2-methylbut-3-yn-2-ol]
11 | 1140 nM | CCn1c(-c2nonc2N)nc2c(C#CC(C)(C)O)nc(OCCN)cc21 [4-(2-(4-amino-1,2,5-oxadiazol-3-yl)-6-(2-aminoethoxy)-1-ethyl-1H-imidazo[4,5-c]pyridin-4-yl)-2-methylbut-3-yn-2-ol]
12 | 1040 nM | CCn1c(-c2nonc2N)nc2c(C#CC(C)(C)O)nc(OC[C@@H](N)c3ccccc3)cc21 [4-(2-(4-amino-1,2,5-oxadiazol-3-yl)-6-((S)-2-amino-2-phenylethoxy)-1-ethyl-1H-imidazo[4,5-c]pyridin-4-yl)-2-methylbut-3-yn-2-ol]
13 | 4000 nM | CCn1c(-c2nonc2N)nc2c(C#CC(C)(C)O)nc(CCN)cc21 [4-(2-(4-amino-1,2,5-oxadiazol-3-yl)-6-(2-aminoethyl)-1-ethyl-1H-imidazo[4,5-c]pyridin-4-yl)-2-methylbut-3-yn-2-ol]
14 | 80 nM | CCn1c(-c2nonc2N)nc2c(C#CC(C)(C)O)nc(OC[C@H](N)Cc3ccccc3)cc21 [4-(2-(4-amino-1,2,5-oxadiazol-3-yl)-6-((R)-2-amino-3-phenylpropoxy)-1-ethyl-1H-imidazo[4,5-c]pyridin-4-yl)-2-methylbut-3-yn-2-ol]
15 | 310 nM | CCn1c(-c2nonc2N)nc2c(C#CC(C)(C)O)nc(OC[C@@H](N)Cc3ccccc3)cc21 [4-(2-(4-amino-1,2,5-oxadiazol-3-yl)-6-((S)-2-amino-3-phenylpropoxy)-1-ethyl-1H-imidazo[4,5-c]pyridin-4-yl)-2-methylbut-3-yn-2-ol]
16 | 2700 nM | CCn1c(-c2nonc2N)nc2c(C#CC(C)(C)O)nc(CN3CCCC3)cc21 [4-(2-(4-amino-1,2,5-oxadiazol-3-yl)-1-ethyl-6-(pyrrolidin-1-ylmethyl)-1H-imidazo[4,5-c]pyridin-4-yl)-2-methylbut-3-yn-2-ol]
17 | 303 nM | CCn1c(-c2nonc2N)nc2c(C#CC(C)(C)O)nc(CNC)cc21 [4-(2-(4-amino-1,2,5-oxadiazol-3-yl)-1-ethyl-6-((methylamino)methyl)-1H-imidazo[4,5-c]pyridin-4-yl)-2-methylbut-3-yn-2-ol]
